Reference: publication PMC3095698 (Journal of molecular biology, 2011)

Assays:
Format in all cases: biochemical
c-myc-PIP5K Iα = c-myc-PIP5K Iα (Homo sapiens, UniProt Q99755); experiment: activation of DP-PI; conditions: activator; 20 μM DP-PI(4)P, 50 μM PA, 50 μM ATP
3×HA-DGKα [1] = target: 3×HA-DGKα (Homo sapiens, UniProt P23743); experiment: […]-ATP phosphorylation in Triton X-100 mixed micelles, COS-7 lysate; conditions: 0.1 mM ATP, 5 mM MgCl2, pH 7.5, 25 °C; DOPS in micelles; surface mole percent
3×HA-DGKα [2] = target: 3×HA-DGKα (Homo sapiens, UniProt P23743, V656L); experiment: as above; conditions: 0.1 mM ATP, 5 mM MgCl2, pH 7.5, 25 °C; DOPS in micelles; surface mole percent
Sequence of 3×HA-DGKα (Homo sapiens, UniProt P23743, V656L) (P23743 whole entry V656L): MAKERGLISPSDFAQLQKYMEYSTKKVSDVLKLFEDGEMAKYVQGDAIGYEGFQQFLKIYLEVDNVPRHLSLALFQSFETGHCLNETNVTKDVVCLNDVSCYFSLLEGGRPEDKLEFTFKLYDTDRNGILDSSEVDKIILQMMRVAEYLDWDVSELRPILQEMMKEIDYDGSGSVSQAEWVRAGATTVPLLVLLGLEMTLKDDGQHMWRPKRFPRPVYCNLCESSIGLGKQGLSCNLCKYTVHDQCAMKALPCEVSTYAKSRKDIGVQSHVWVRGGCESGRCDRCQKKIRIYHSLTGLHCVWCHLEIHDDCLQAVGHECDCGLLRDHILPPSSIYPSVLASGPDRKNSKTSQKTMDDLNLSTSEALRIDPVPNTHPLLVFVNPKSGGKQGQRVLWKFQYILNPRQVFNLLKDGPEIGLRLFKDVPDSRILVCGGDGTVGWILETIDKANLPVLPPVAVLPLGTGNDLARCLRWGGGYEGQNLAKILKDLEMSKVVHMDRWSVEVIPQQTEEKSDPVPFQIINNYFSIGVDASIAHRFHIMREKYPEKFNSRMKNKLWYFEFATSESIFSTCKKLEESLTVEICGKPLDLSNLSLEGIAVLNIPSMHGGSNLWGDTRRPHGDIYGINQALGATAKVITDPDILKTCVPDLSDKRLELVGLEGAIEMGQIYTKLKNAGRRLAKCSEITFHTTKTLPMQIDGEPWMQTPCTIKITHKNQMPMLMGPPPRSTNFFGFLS

Sequence of 3×HA-DGKα (Homo sapiens, UniProt P23743) (P23743 whole entry): as the sequence (P23743 whole entry V656L) above, with L656V counted along it
Sequence of c-myc-PIP5K Iα (Q99755 whole entry): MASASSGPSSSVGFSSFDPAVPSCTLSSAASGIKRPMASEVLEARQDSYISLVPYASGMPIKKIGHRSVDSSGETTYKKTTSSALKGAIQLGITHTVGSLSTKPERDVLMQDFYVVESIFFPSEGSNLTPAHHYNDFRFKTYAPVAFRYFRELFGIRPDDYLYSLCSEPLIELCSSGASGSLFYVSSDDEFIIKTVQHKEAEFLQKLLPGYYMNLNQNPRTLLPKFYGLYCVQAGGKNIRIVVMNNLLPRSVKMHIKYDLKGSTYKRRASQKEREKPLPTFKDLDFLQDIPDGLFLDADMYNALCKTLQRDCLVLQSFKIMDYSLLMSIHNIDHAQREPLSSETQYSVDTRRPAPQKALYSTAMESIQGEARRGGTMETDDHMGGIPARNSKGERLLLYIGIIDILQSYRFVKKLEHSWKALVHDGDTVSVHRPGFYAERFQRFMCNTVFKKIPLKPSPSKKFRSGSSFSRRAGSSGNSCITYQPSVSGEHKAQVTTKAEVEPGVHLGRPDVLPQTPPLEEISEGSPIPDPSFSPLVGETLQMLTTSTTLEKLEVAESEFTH

Row | SMILES | fold activation (c-myc-PIP5K Iα) | Km, mol% (3×HA-DGKα [1]) | Km, mol% (3×HA-DGKα [2])
1 | CCCCC/C=C\C/C=C\C/C=C\C/C=C\CCCC(=O)OC[C@H](COP(=O)(O)O)OC(=O)CCC/C=C\C/C=C\C/C=C\C/C=C\CCCCC [DAPA, 1,2-Diarachidonoyl phosphatidic acid] | 12 fold | – | –
2 | CCCCC/C=C\C/C=C\C/C=C\C/C=C\CCCC(=O)O[C@@H](CO)COC(=O)CCCCCCCCCCCCCCCCC [SAG, 1-Stearoyl-2-arachidonoyl-sn-glycerol] | – | 2.1 ± 0.4 mol% | 1.8 ± 0.3 mol%
3 | CCCCC/C=C\C/C=C\CCCCCCCC(=O)O[C@@H](CO)COC(=O)CCCCCCCCCCCCCCCCC [SLG, 1-Stearoyl-2-linoleoyl-sn-glycerol] | – | 2.8 ± 0.3 mol% | 1.5 ± 0.4 mol%
